Laboratory results reported in patent US20240350669A1, “INHIBITION OF KYNURENINE SYNTHESIS AND/OR SIGNALING TO TREAT LEUKEMIA AND MYELODYSPLASIA” (THE TRUSTEES OF COLUMBIA UNIVERSITY IN THE CITY OF NEW YORK, priority 2022, published 2024).

Key:
mouse HTR1B = target: T1, mouse HTR1B (Mus musculus, UniProt P28334); experiment: [3H]-5-HT competition binding, membranes of HEK293T cells overexpressing murine HTR1B; conditions: competition of 25 nM [3H]-5-HT; for Log IC50: log value
T1 construct: The full-length murine or human serotonin receptor 1b (Htr1b); Myc-DDK; host or cells: HEK293T (transient, Lipofectamine LTX); isolated membranes
Description: (§1) Radioactivity captured on the filters was counted using a SL300 scintillation counter (Hidex). […] Log EC50 were determined by Non-linear regression curve analysis.

HTR1B = experiment: Saa3 mRNA in primary mouse calvaria osteoblasts from Htr1b+/+ or Htr1b-/- mice; format: cell-based; conditions: 25 nM, 24 h; for Saa3 expression in mouse osteoblasts: Htr1b+/+ osteoblasts
Description: Primary calvaria-derived osteoblasts were prepared from calvaria of 2-3 day-old newborns as previously described (Rached M-T, et al. FoxO1 Is a Positive Regulator of Bone Formation by Favoring Protein Synthesis and Resistance to Oxidative Stress in Osteoblasts. Cell Metabolism. Elsevier Ltd; 2010; 11:147-60.). Briefly, mice calvaria were sequentially digested for 20, 40, and 90 min at 37° C. in alpha-MEM (Gibco) 10% FBS containing 0.1 mg/ml of collagenase P (Worthington) and 0.25% trypsin (Gibco). Cells of the first two digests were discarded, whereas cells released from the third digestion were plated and differentiated for 7-10 days as previously described.
(§2) RNA isolation, cDNA preparation and real-time PCR analyses were carried out following standard protocols. Total RNA from cortical bone (clean, flushed femurs, were centrifugated 20 seconds at 10.000 g's to remove any remaining BM) was extracted using TRIzol (Invitrogen) followed by RNA clean-up using PureLink RNA Mini Kit (Ambion, Invitrogen). mRNA was reversed transcribed using random hexamers RNA-to-cDNA kit (Takara). Specific forward and reverse primers were used in conjunction with PowerUp SYBR Green Master Mix (Applied Biosystems) for quantitative PCR. Expression levels were analyzed using the 2^−ΔΔCt method and were normalized for the expression of the housekeeping gene Hprt unless otherwise stated.

[1] = system: patient-derived AML cells; experiment: Patient-derived AML xenograft in NSG mice, epacadostat chow and/or Ara-C; format: in vivo, mouse; conditions: day 22 after initiating therapy; Ara-C 60 mg/kg/day x 5 days, epacadostat chow 1.6 g/kg 3 weeks
Description: (§3) Epacadostat (AdooQ Cat #A15554)-treatment: for the WT C57BL/6J mice, treatment started at the same time than MLL/AF9 cells were transplanted. For the patient-derived AML cells (PDX) transplanted into NSG mice, treatment started 8 weeks after transplant, at the same time than Ara-C and during 3 weeks. Mice were supplied with ad libitum epacadostat-supplemented diet (Research Diets Inc.) at 800 mg/kg (low-dose) or 1.6 g/kg (high-dose). For the PDX transplanted into NSGS mice, treatment started 3 weeks after transplant, by daily gavage at 300 mg/kg (InvivoChem Cat #: V0942, dissolved in 10% DMSO, 40% PEG 300 and 50% NaCl 0.9%) for 2 weeks.
For the combination therapy (Epacadostat+chemotherapy) performed at the University of Pennsylvania, patient-derived AML cells were transplanted as previously reported (48). Briefly 6 weeks old NSG males were sublethally treated with busulfan (30 mg/kg) 24 h before transplant and 5×10^6 patient-derived AML cells were injected i.v. Engraftment was assessed, and mice were randomized at 7.5 weeks by BM aspirate as previously described. Randomized mice were treated with vehicle, cytosine arabinoside (Ara-C, 60 mg/kg/day×5 days i.p.), epacadostat chow (1.6 g/kg ad libitum) or both Ara-C and epacadostat chow for 3 weeks.

human HTR1B [2] = target: T2, human HTR1B (Homo sapiens, UniProt P28222); experiment: [3H]-GR125743 competitive radioligand binding, HTR1B membranes from HEK293T stable transfectants; conditions: [3H]-GR125743, human HTR1B
Description: [^3H]-GR125743 (PerkinElmer) radioligand binding assays were performed in standard binding buffer (50 mM Tris, 10 mM MgCl2, 0.1 mM EDTA, 0.1% BSA, 0.01% ascorbic acid, pH 7.4). Competitive binding was assessed with various concentrations of test compounds (0.3 nM to 100 μM), [^3H]-GR125743 (1.38 nM), and HTR1B membranes (isolated from HEK293T stable transfectants) in a total volume of 150 μL. Assay plates were incubated in the dark for 1 h at RT and reactions were stopped by filtration onto 0.3% polyethyleneimine pre-soaked 96-well Filtermat A (PerkinElmer), followed with three quick washes with cold wash buffer (50 mM Tris, pH 7.4). Filters were dried and melted with scintillation cocktail (Meltilex, PerkinElmer). Radioactivity was counted using a Wallac TriLux Microbeta counter (PerkinElmer).

[3] = system: leukemic blasts (hCD45+hCD33+); experiment: Kyn injection in low AML burden PDX mice; format: in vivo, mouse; conditions: Kyn 20 mg/kg, 1 week
Description: 4-6 weeks old NSG (CDX model) or NSGS (PDX model) mice were pre-conditioned with sublethal (1.4 Gy) total-body irradiation. 24 h after, 1×10^6 OCI-AML3 or 2×10^5 human BM CD34^+ (healthy) or primary AML patient samples were injected i.v. Engraftment levels were monitored and mice were randomized after BM aspiration 3-4 weeks later and immunophenotyped by the presence of mCD45 (BioLegend Cat #103133, RRID: AB_10899570), hCD45 (BioLegend Cat #368512, RRID: AB_2566372), hCD33 (BioLegend Cat #303404, RRID: AB_314348), hCD34 (BioLegend Cat #343518, RRID: AB_1937203) cell populations. For the low-burden PDX model (kynurenine injections), mice were treated 1 week after transplant.
Quantification in serum from peripheral blood (mice) or BM plasma (patients) of Kyn and Trp was assessed by ELISA using independent kits (ImmunoSmol) as per manufacturer's instructions. The ratio between Kyn and Trp levels is shown. SAA3 in serum (murine SAA3 ELISA Kit Millipore) and SAA1 in patient BM plasma (Amyloid A1 DuoSet ELISA Kit (R&D) were assessed as per manufacturer's instructions.
Cell labelling was done by i.p. injection of mice with 50 mg/kg of freshly prepared 5-Ethynyl-2′-deoxyuridine-Edu-(Cayman Chemical Company Cat #20518). After 3-4 h, BM was harvested, and human cells were negatively selected by mouse cell depletion using mouse CD45 magnetic beads (Miltenyi). The human BM cells were then stained CD45 and CD33 to identify the leukemic blast. Cell cycle/proliferation analysis was performed using the Click-iT Plus EdU Flow Cytometry Assay Kit (Invitrogen, Cat #C10420) following manufacturers' instructions. Fixable viability dye (Biolegend) was used to discriminate the death population. Single color controls were used to set compensations and fluorescence minus one control were used to set gates. Analysis was performed with FlowJo software.

5-HT1B receptor = target: T3, 5-HT1B receptor (Homo sapiens, UniProt P28222); experiment: GloSensor Gi/o-mediated cAMP inhibition assay in HEK293T cells; format: cell-based
T3 construct: expressed in transfected cells; host or cells: HEK293T (transient co-transfection with GloSensor cAMP plasmid)

human HTR1B [4] = target: T2, human HTR1B; conditions: competition of 25 nM [3H]-5-HT
Description: The full-length murine or human serotonin receptor 1b (Htr1b) (pCMV6-Entry vector, Myc-DDK-tagged, Origene, Cat #MR222524 and RC223874 respectively) were transiently transfected into HEK293T cells using Lipofectamine LTX (Invitrogen). Transfection efficiency was assessed 24 h post-transfection by flow cytometry using the anti-Flag antibody (Sigma-Aldrich Cat #F3165, RRID: AB_259529). […] Reactions were stopped by the addition of ice-cold PBS, filtered through 0.7 μm glass fiber filters (Data Support Company). Filters were dried and melted with scintillation cocktail. Radioactivity captured on the filters was counted using a SL300 scintillation counter (Hidex). […] Log EC50 were determined by Non-linear regression curve analysis.

[5] = system: serotonin-HTR1B signaling; experiment: Gene expression in bone of treated mice (targets of serotonin-HTR1B signaling); format: in vivo, mouse; conditions: for expression of Cyclins D1, D2 and E1 in bone: treated versus vehicle-treated mice
Description: as §2

murine HTR1B receptor = target: T4, murine HTR1B receptor (Mus musculus, UniProt P28334); experiment: [3H]-Kyn binding to Htr1b-overexpressing HEK293T membranes with increasing SB9
T4 construct: The full-length murine or human serotonin receptor 1b (Htr1b); Myc-DDK; host or cells: HEK293T (transient, Lipofectamine LTX); isolated membranes
Description: as §1

MLL/AF9 AML cells = experiment: MLL/AF9 syngeneic leukemia model in non-irradiated WT mice; format: in vivo, mouse
Description: PTH bone-anabolic treatment: mice were injected intraperitoneally (i.p.) with PTH (Bachem) at 80 μg/kg/day in PBS. Injections started 1 week before MLL/AF9 injection and continued along 2-3 more weeks until mice were harvest.
SB224289-SB9-(TOCRIS Cat #1221) treatment: mice were injected intraperitoneally (i.p.) daily with SB9 (5 mg/kg in 0.9% NaCl) 1 week after leukemia injection and for the duration of the experiment. Assuming a 20 g body weight (BW) and a 2 ml total blood volume per mouse—as well as an even distribution of the drug-systemic concentration of SB9 should be approximately 50 μg/ml. Based on the MW of SB9 (557.09), the final concentration—at equal distribution—in blood should be 8.97521e-05 M (≈90 μM).
as §3
(§4) All leukemia models were introduced by intravenous (i.v.) injection and transplanted into non-irradiated secondary recipient experimental animals. BALB/c mice were used for the WEHI-3B leukemia model (0.5×10^6/cells/mouse) and C57BL/6J mice for MLL/AF9-dsRed (0.2×10^6/cells/mouse). Leukemia progression was assessed by fluorescence (MLL/AF9 dsRed) using the IVIS-Spectrum Optical Imaging System (Caliper, Perkin Elmer). Mice were shaved to reduce light attenuation.

IDO1 = experiment: CRISPR/Cas9 Ido1 editing of primary murine MLL/AF9 cells; format: cell-based, mouse; conditions: for deletion efficiency: Ido1 exon 3, MLL/AF9 cells
Description: (§5) The chemically modified sgRNAs targeting IDO1 were obtained and designed with at least 3 mismatches to decrease possible off target effects with the Synthego CRISPR design tool or the CRISPOR. […] In addition, lack of random effects due to TP53 activation, was shown by p16 and p21 mRNA level assessment in Cas9-only controls as well as in all the sgRNAs used. For 10^6 cells, 3 μg of TrueCut Cas9 protein V2 (Invitrogen) and 1.5 μg sgRNA were mixed in either SE (immortalized cell lines WEHI-3B and OCI-AML3) or P3 (primary mouse MLL/AF9 or patient-derived AML cells) buffer (Lonza, Amaxa X-Nucleofector Kit) and incubated 10 mins. Cells were then resuspended in their respective nucleofection buffer, mixed with the Cas9/sgRNA RNP complex or the Cas9 only as control, and electroporated with the Lonza 4D-Nucleofector (program DZ100, CM137 or DI100). After electroporation, cells were cultured in their respective media at 37° C. until sequencing analysis and/or injection. The editing efficiency data, indel contribution and Sanger sequence analyses were performed with the Synthego Performance Analysis, ICE Analysis. 2019. v2.0. (Synthego).

WEHI-3B = experiment: Transplant of Ido1-edited WEHI-3B cells into mice; format: in vivo, mouse; conditions: edited WEHI-3B cells versus Cas9-only
Description: as §4
as §5, with “After electroporation, cells were cultured in their respective media at 37° C. until sequencing analysis and/or injection. The editing efficiency data, indel contribution and Sanger sequence analyses were performed with the Synthego Performance Analysis, ICE Analysis. 2019. v2.0. (Synthego).” left out

MLL/AF9 cells = experiment: Transplant of Ido1-edited MLL/AF9 cells into WT non-irradiated recipients; format: in vivo, mouse; conditions: for disease progression: exon-3-edited MLL/AF9 cells versus Cas9-only

T1 sequence (P28334 whole entry): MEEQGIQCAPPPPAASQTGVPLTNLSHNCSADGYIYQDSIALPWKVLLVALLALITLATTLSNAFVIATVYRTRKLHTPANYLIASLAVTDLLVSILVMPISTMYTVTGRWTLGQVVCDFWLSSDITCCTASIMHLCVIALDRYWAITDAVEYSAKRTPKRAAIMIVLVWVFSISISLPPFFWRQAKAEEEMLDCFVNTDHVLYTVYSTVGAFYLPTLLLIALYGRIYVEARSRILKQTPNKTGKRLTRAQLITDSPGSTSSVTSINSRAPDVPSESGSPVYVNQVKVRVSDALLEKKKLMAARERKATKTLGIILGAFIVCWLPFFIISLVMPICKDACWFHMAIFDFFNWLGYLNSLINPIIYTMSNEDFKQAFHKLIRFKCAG
T2 sequence (P28222 whole entry): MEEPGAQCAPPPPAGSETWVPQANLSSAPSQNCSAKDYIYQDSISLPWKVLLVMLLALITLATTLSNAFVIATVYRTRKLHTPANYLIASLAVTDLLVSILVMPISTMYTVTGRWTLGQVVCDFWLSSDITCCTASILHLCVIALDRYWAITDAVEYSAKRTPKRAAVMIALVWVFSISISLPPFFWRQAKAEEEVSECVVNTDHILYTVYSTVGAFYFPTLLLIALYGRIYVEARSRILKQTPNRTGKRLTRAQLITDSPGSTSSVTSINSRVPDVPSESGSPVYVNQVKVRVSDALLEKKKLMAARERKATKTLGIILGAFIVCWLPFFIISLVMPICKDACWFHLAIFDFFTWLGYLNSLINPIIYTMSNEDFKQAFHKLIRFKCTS
T3 sequence (P28222 whole entry): as above
T4 sequence (P28334 whole entry): as the sequence (P28334 whole entry) above

NCCc1c[nH]c2ccc(O)cc12 [5-HT, 5-hydroxytryptamine]
IC50 (mouse HTR1B): 0.0811 µM
Log IC50 (mouse HTR1B): −7.091 M
Saa3 expression in mouse osteoblasts (HTR1B): no effect

Nc1ccn([C@@H]2O[C@H](CO)[C@@H](O)[C@@H]2O)c(=O)n1 [Ara-C, cytosine arabinoside]
leukemic burden in BM [1]: modest decrease in overall leukemic burden
leukemic burden in spleen [1]: more sustained in the spleen than in BM

Nc1ccccc1C(=O)CC(N)C(=O)O (stereo not drawn) [Kyn, kynurenine]
Ki (human HTR1B [2]): 17.3 µM
Log Ki (human HTR1B [2]; log value): −4.762 M
AML burden in BM and SP [3]: increased
proliferative capacity of the leukemic blasts [3]: increases
serum SAA3 [3]: increases
IC50 (mouse HTR1B): 54.1 µM
Log IC50 (mouse HTR1B): −4.267 M
Saa3 expression in Htr1b-/- primary osteoblasts (HTR1B): failed to upregulate
Saa3 expression in mouse osteoblasts (HTR1B): potently upregulated
mode of action on Gi/o-mediated cAMP production through HTR1B (5-HT1B receptor): partial agonist
EC50 (5-HT1B receptor; cAMP Gi agonist, human HTR1B): 0.772 µM
Log EC50 (5-HT1B receptor; log value, cAMP Gi agonist, human HTR1B): −6.113 M
IC50 (human HTR1B [4]): 24.4 µM
Log IC50 (human HTR1B [4]; log value): −4.612 M

Cc1nc(-c2ccc(-c3ccc(C(=O)N4CCc5cc6c(cc54)C4(CCN(C)CC4)CO6)cc3)c(C)c2)no1 [SB224289, 1′-methyl-5-[[2′-methyl-4“-(5-methyl-1,2,4-oxadiazol-3-yl)biphenyl-4-yl]carbonyl]-2,3,6,7-tetrahydro-spiro[furo[2,3-f]indole-3,4-”piperidine]]
expression of Col1a1 in bone ([5]; control osteoblast-specific gene): not affected
expression of Cyclins D1, D2 and E1 in bone [5]: upregulated
IC50 (mouse HTR1B): 1.27 µM
Log IC50 (mouse HTR1B): −5.896 M
effect on Kyn binding to the murine HTR1B receptor (murine HTR1B receptor; at ~90 μM, concentration equal to the one administered in vivo): no effect
IC50 (murine HTR1B receptor; competition of [3H]-Kyn (50 μM), mouse HTR1B): 7720 µM
survival (MLL/AF9 AML cells; SB9 5 mg/kg i.p. daily versus vehicle): significant increase in survival

sgRNA #146: mouse sgRNA targeting Ido1 exon 3: CGCCAUGGUGAUGUACCCCA GGG (guide CGCCAUGGUGAUGUACCCCAGGG; listed as RNA, chemistry not fully specified)
deletion efficiency (IDO1): ~56%
survival (WEHI-3B): significant increased survivals
disease progression (MLL/AF9 cells): abrogated

sgRNA #196: mouse sgRNA targeting Ido1 exon 3: CUGCCCACACUGAGCACGGA CGG (guide CUGCCCACACUGAGCACGGACGG; listed as RNA, chemistry not fully specified)
deletion efficiency (IDO1): ~40%
disease progression (MLL/AF9 cells): significantly attenuated

sgRNA #203: mouse sgRNA targeting Ido1 exon 3: CAGUCCGUCCGUGCUCAGUG TGG (guide CAGUCCGUCCGUGCUCAGUGTGG; modified_base 21 OTHER; thymine)
deletion efficiency (IDO1): ~40%
disease progression (MLL/AF9 cells): significantly attenuated

sgRNA #610: mouse sgRNA targeting Ido1 exon 4: UAGGGAACAGCAAUAUUGCG GGG (guide UAGGGAACAGCAAUAUUGCGGGG; listed as RNA, chemistry not fully specified)
MLL/AF9 cells efficiently targeted (IDO1; Ido1 exon 4): ~70%
loss of expression of Ido1 at the mRNA level (IDO1; Ido1 exon 4, MLL/AF9 cells): 70%
mice with complete protection against leukemia progression that survived (MLL/AF9 cells; exon-4-edited MLL/AF9 cells): 36%
survival (MLL/AF9 cells; exon-4-edited MLL/AF9 cells versus Cas9-only): significant increase in survival

B1: parathyroid hormone (peptide, UniProt P01270 32-115, looked up)
Parathyroid hormone: SVSEIQLMHNLGKHLNSMERVEWLRKKLQDVHNFVALGAPLAPRDAGSQRPRKKEDNVLVESHEKSLGEADKADVNVLTKAKSQ
modifications: Parathyroid hormone
notes: intermittent parathyroid hormone (Bachem), increases osteoblast numbers
expression of Cyclins D1, D2 and E1 in bone [5]: did not change
leukemia growth, disease progression and lifespan (MLL/AF9 AML cells; PTH 80 μg/kg/day i.p. versus vehicle): failed to curtail leukemia growth
